Results reported in patent EP0934065B1, “NOVEL CRYPTOPHYCIN DERIVATIVES AS ANTI-NEOPLASTIC AGENTS” (priority 1996, dated 1998).
pIC50: −log10 of the molar value. Converted amounts (≈) assume the structure as drawn. Structures can show the parent of a compound that is named as a salt. Where two headings read alike, the source gives them in different places.

Key:
physchem [1] = assay: physchem
Excerpt: Table 4. Solubility of cryptophycin glycinate 12 in various parenteral vehicles.

physchem [2] = assay type: physicochemical; details: for solubility: water
[3] = tested on: GC3 human colon carcinoma cells; assay: cells; assay type: cell-based; details: 72 hours incubation, MTT
Experimental: Selected wells of a 96 well plate were seeded with GC3 human colon carcinoma cells ([…] cells in 100µl assay medium/well) twenty four hours prior to test compound addition. Cell free assay medium was added to other select wells of the 96 well plate. The assay medium (RPMI-1640 was the medium used; however, any medium that will allow the cells to survive would be acceptable) was supplemented with 10% dialyzed fetal bovine serum and 25 mM HEPES buffer.
The test compound was stored in an amber bottle prior to testing. Fresh dimethylsulfoxide stock solution (200µg/ml) was prepared immediately prior to preparation of test sample dilutions in phosphate-buffered saline (PBS). A dilution of 1:20 dimethylsulfoxide solution in PBS was prepared such that the final concentration was 10 µg/ml. Serial 1:3 dilutions using PBS (.5ml previous sample of 1ml PBS) were prepared. Falcon 2054 tubes were used for the assay.
A 10ul sample of each dilution of test compound was added in triplicate to wells of GC3 plates. The plates were incubated for 72 hours at about 37°C. A 10µl sample of stock […] salt ("MTT" 5 mg/ml in PBS) was added to each well. The plates were incubated for about an hour at 37°. The plates were centrifuged, media was decanted from the wells and 100µl acid-isopropanol (0.04 N HCl in isopropanol) was added to each well. The plate was read within one hour using a test wavelength of 570nm (SpectraMax reader).

[4] = tested on: A-10 rat aortic smooth muscle cells; assay: Immunofluorescence: effects on the cytoskeleton; assay type: cell-based; details: A-10 cells, 2µM cytochalasin B, 24 hours
Experimental: (§1) A-10 cells are grown to near-confluency on glass coverslips in BME/10% FBS. Compounds in PBS are added to the indicated final concentrations and cells are incubated for an additional 24 hours. For the staining of microtubules and intermediate filaments, the cells are fixed with cold methanol and incubated with PBS containing 10% calf serum to block nonspecific binding sites. Cells are then incubated at 37°C for 60 min. With either monoclonal anti-β-tubulin or with monoclonal anti-vimentin at dilutions recommended by the manufacturer. Bound primary antibodies are subsequently visualized by a 45 minute incubation with fluorescein-conjugated rabbit antimouse IgG. The coverslips are mounted on microscope slides and the fluorescence patterns are examined and photographed using a Zeiss Photomicroscope I11 equipped with epifluorescence optics for fluorescein. […] PBS containing 100nM TRITC-phalloidin is then added and the mixture is allowed to incubate for 45 min. At 37°C. The cells are washed rapidly with PBS before the coverslips are mounted and immediately photographed as described above.
After 24 hours, microtubules and vimentin intermediate filaments are visualized by indirect immunofluorescence and microfilaments are stained using TRITC-phalloidin. The morphological effects of each drug is examined. […]

A-10 cells [5] = assay: Effects on taxol-stabilized microtubules; assay type: cell-based, rat
Experimental: as §1
After 24 hours, microtubule organization is examined by immunofluorescence as described above. […] Similarly, microtubules pretreated with taxol are observed with cryptophycin treatment.

A-10 cells [6] = assay: Reversibility of microtubule depolymerization; assay type: cell-based, rat; details: 100nM vinblastine 24 hr
Experimental: as §1
The cells are then washed and incubated in drug-free medium for periods of 1 hour or 24 hours. […] Cells are visualized for microtubule state after treatment with a cryptophycin compound of this invention at either 1 hour or 24 hours after removal of the cryptophycin compounds.

[7] = pH 8, room temperature, read-out: solubility value

For `COc1ccc(C[C@H]2NC(=O)/C=C/C[C@@H]([C@H](C)[C@@H](O)[C@@H](Cl)c3ccccc3)OC(=O)[C@H](CC(C)C)OC(=O)C(C)(C)CNC2=O)cc1Cl` [Compound 1, cryptophycin 55], the Comparative solubilities (physchem [1]; excipient 1: Propylene Glycol 15, Ethanol 10 %v/v, volume adjusted 0.05M acetate buffer, BQL = Below quantitation limit, approximately 0.001 mg/ml) was “BQL”, the “aqueous solubility over the pH range studied” value (physchem [2]; aqueous pH 4-8, room temperature) was “declined as the pH bacame basic” and the solubility (physchem [2]; pH 4, water, pH of 4, read-out: aqueous solubility value) was ~50 µg/mL (≈ 70.9 µM). It also gave a solubility (physchem [2]; [7]) of 10 µg/mL (≈ 14.2 µM).
For `COc1ccc(C[C@H]2NC(=O)/C=C/C[C@@H]([C@H](C)[C@@H](OC(=O)CN)[C@@H](Cl)c3ccccc3)OC(=O)[C@H](CC(C)C)OC(=O)C(C)(C)CNC2=O)cc1Cl` [Compound 12], the pIC50 ([3]; Homo sapiens, Colon carcinoma cell) was 10.00, the solubility (physchem [1]; 0.05m acetate buffer, pH 4, aqueous buffer, Comparative solubilities, excipient 5: 0.05M Acetate buffer pH 4.0 100 %v/v) was 30 µg/mL (≈ 39.3 µM) and the solubility (physchem [1]; emulphor el719 in acetate buffer, aqueous buffer, Comparative solubilities, excipient 4: Emulphor EL719 1 (w/v), volume adjusted 0.05M acetate buffer) was 1500 µg/mL (≈ 1970 µM). For the same molecule, the solubility (physchem [1]; ethanol/acetate buffer, pH 4, organic solvent or mixture, Solubility in parenteral vehicle, vehicle 3: Ethanol 10 %v/v, 0.05M Acetate buffer pH 4.0 qs) was 1290 µg/mL (≈ 1690 µM), the solubility (physchem [1]; ethanol/propylene glycol/acetate buffer, pH 4, organic solvent or mixture, Solubility in parenteral vehicle, vehicle 2: Ethanol 10, Propylene Glycol 10 %v/v, 0.05 M Acetate buffer pH 4.0 qs) was 1990 µg/mL (≈ 2610 µM) and the solubility (physchem [1]; ethanol/propylene glycol/acetate buffer, pH 4, organic solvent or mixture, Solubility in parenteral vehicle, vehicle 6: Ethanol 10, Propylene Glycol 25 %v/v, 0.05 M Acetate buffer pH 4.0 qs) was 10300 µg/mL (≈ 13500 µM). It also gave a solubility (physchem [1]; ethanol/propylene glycol/acetate buffer, pH 4, organic solvent or mixture, Solubility in parenteral vehicle, vehicle 7: Ethanol 10, Propylene Glycol 15 %v/v, 0.05 M Acetate buffer pH 4.0 qs) of 4320 µg/mL (≈ 5660 µM), a solubility (physchem [1]; ethanol/propylene glycol/citrate buffer, pH 4, organic solvent or mixture, Solubility in parenteral vehicle, vehicle 1: Ethanol 10, Propylene Glycol 10 %v/v, 0.05 M Citrate buffer pH 4.0 qs) of 110 µg/mL (≈ 144 µM) and a solubility (physchem [1]; polysorbate 80/acetate buffer, pH 4, Solubility in parenteral vehicle, vehicle 5: Polysorbate 80 0.5 (w/v), 0.05 M Acetate buffer pH 4.0 qs) of 2210 µg/mL (≈ 2900 µM). The solubility (physchem [1]; polysorbate 80 in acetate buffer, aqueous buffer, Comparative solubilities, excipient 3: Polysorbate 80 1(w/v), volume adjusted 0.05M acetate buffer, BQL = Below quantitation limit, approximately 0.001 mg/ml) was 1000 to 2000 µg/mL (≈ 1310 to 2620 µM), the solubility (physchem [1]; propylene glycol/acetate buffer, pH 4, organic solvent or mixture, Solubility in parenteral vehicle, vehicle 4: Propylene Glycol 10 %v/v, 0.05 M Acetate buffer pH 4.0 qs) was 1580 µg/mL (≈ 2070 µM) and the solubility (physchem [1]; propylene glycol/ethanol/acetate buffer, organic solvent or mixture) was > 2000 µg/mL. The solubility (physchem [1]; propylene glycol/peg 3000/acetate buffer, organic solvent or mixture) was > 2000 µg/mL and the solubility (physchem [2]; [7]) was 30 µg/mL (≈ 39.3 µM).
`COc1ccc(CC2NC(=O)C=CCC(C(C)C(OC(=O)CCN)C(Cl)c3ccccc3)OC(=O)C(CC(C)C)OC(=O)C(C)(C)CNC2=O)cc1Cl` (stereo not shown) [Compound 14, Cryptophycin 55 b-alaninate hydrochloride salt] showed a pIC50 [3] of 7.68.
`COc1ccc(CC2NC(=O)C=CCC(C(C)C(OC(=O)C(C)N)C(Cl)c3ccccc3)OC(=O)C(CC(C)C)OC(=O)C(C)(C)CNC2=O)cc1Cl` (stereo not shown) [Compound 18, Cryptophycin 55 (L)-alaninate hydrochloride salt] gave a pIC50 [3] of 8.59.
For `COc1ccc(C[C@H]2NC(=O)/C=C/C[C@@H]([C@H](C)[C@@H](OC(=O)[C@@H](N)CCCCN)[C@@H](Cl)c3ccccc3)OC(=O)[C@H](CC(C)C)OC(=O)C(C)(C)CNC2=O)cc1Cl` [Compound 22, Cryptophycin 55 (L)-lysinate di-hydrochloride salt], the pIC50 [3] was 8.14.
Work on `COc1ccc(CC2NC(=O)C=CCC(C(C)C(OC(=O)C(N)CCCCN)C(Cl)c3ccccc3)OC(=O)C(CC(C)C)OC(=O)C(C)(C)CNC2=O)cc1Cl` (stereo not shown) [Compound 34, Cryptophycin 55 (D)-lysinate di-hydrochloride salt] yielded a pIC50 ([3]; Table 2 of Example 94) of 8.19.
`COc1ccc(CC2NC(=O)C=CCC(C(C)C(OC(=O)[C@@H](N)CN)C(Cl)c3ccccc3)OC(=O)C(CC(C)C)OC(=O)C(C)(C)CNC2=O)cc1Cl` (stereo partly drawn) [Compound 44, Cryptophycin 55 (S)-2,3-diaminopropionate dihydrochloride salt] gave a pIC50 ([3]; Table 2 of Example 94) of 7.55.
`COc1ccc(CC2NC(=O)C=CCC(C(C)C(OC(=O)C(N)CO)C(Cl)c3ccccc3)OC(=O)C(CC(C)C)OC(=O)C(C)(C)CNC2=O)cc1Cl` (stereo not shown) [Compound 46, Cryptophycin 55 (L)-serinate hydrochloride salt] gave a pIC50 ([3]; Table 2 of Example 94) of 7.30.
With `C=C1[C@@H](C)[C@H]2[C@H](Cc3ccccc3)NC(=O)[C@]23OC(=O)/C=C/[C@H](O)CCC[C@@H](C)C/C=C/[C@H]3[C@@H]1O` [Cytochalasin B, cytochalasin B] the effect on microfilaments ([4]; TRITC-phalloidin) was “complete depolymerization of microfilaments” and the “effect on distribution of microtubules and intermediate filaments” value ([4]; indirect immunofluorescence) was “did not affect the distribution of either microtubules or intermediate filaments”.
In the case of `CC(=O)O[C@H]1C(=O)[C@@]2(C)[C@H]([C@H](OC(=O)c3ccccc3)[C@]3(O)C[C@H](OC(=O)[C@H](O)[C@@H](NC(=O)c4ccccc4)c4ccccc4)C(C)=C1C3(C)C)[C@]1(OC(C)=O)CO[C@@H]1C[C@@H]2O` [Taxol, taxol], the microtubule organization (A-10 cells [5]; 10µM taxol, compared with control cells) was “extensively bundled”.
For `CC[C@]1(O)C[C@@H]2CN(CCc3c([nH]c4ccccc34)[C@@](C(=O)OC)(c3cc4c(cc3OC)N(C)[C@H]3[C@@](O)(C(=O)OC)[C@H](OC(C)=O)[C@]5(CC)C=CCN6CC[C@]43[C@@H]65)C2)C1` [Vinblastine, vinblastine], the “microtubule depolymerization, non-pretreated cells” value (A-10 cells [5]; 100nM vinblastine, 24 hours) was “complete depolymerization of microtubules”, the “microtubule depolymerization after pretreatment with taxol” value (A-10 cells [5]; 3 hours 10µM taxol, then 100nM vinblastine, 24 hours) was “pretreatment with taxol prevented microtubule depolymerization” and the “microtubule repolymerization after removal of drug” value (A-10 cells [6]; then drug-free medium 1 hour) was “significant levels of microtubules”. The “microtubule repolymerization after removal of drug” value (A-10 cells [6]; then drug-free medium 24 hours) was “complete morphological recovery”.
For “Cryptophycin 55 3,6,9-tioxadecanoate [Compound 48]”, the pIC50 ([3]; Table 2 of Example 94) was 8.00.
In the case of “Cryptophycin 55 (2'-di-t-butylphosphatyl)phenylacetate [Compound 5]”, the pIC50 ([3]; Table 2 of Example 94) was 7.51.
With “Cryptophycin 55 (D)-aspartate hydrochloride salt [Compound 40]” the pIC50 ([3]; Table 2 of Example 94) was 8.70.
“Cryptophycin 55 (L) -γ-glutamate hydrochloride salt [Compound 42]” gave a pIC50 ([3]; Table 2 of Example 94) of 7.82.
“Cryptophycin 55 (L)-aspartate hydrochloride salt [Compound 38]” showed a pIC50 ([3]; Table 2 of Example 94) of 8.80.
With “Cryptophycin 55 (L)-α-glutamate hydrochloride salt [Compound 36]” the pIC50 ([3]; Table 2 of Example 94) was 8.55.
In the case of “Cryptophycin 55 N-methylpyridinium acetate salt [Compound 8]”, the pIC50 [3] was 8.66 and the pIC50 ([3]; Table 2 of Example 94) was 6.94.
With “Cryptophycin 55 N-t-Boc-3-(3-chloro-4-methoxyphenyl)-(D)-alaninate [Compound 9]” the pIC50 ([3]; Table 2 of Example 94) was 8.66.
Work on “Cryptophycin 55 N-t-Boc-(D)-alaninate [Compound 19]” yielded a pIC50 ([3]; Table 2 of Example 94) of 10.00.
Molecule “Cryptophycin 55 N-t-Boc-glycinate [Compound 11]” has a pIC50 ([3]; Table 2 of Example 94) of 8.17.
With “Cryptophycin 55 Na-Ne-di-t-Boc-(L)-lysinate [Compound 21]” the pIC50 ([3]; Table 2 of Example 94) was 7.68.
With “Cryptophycin 55 glycidylglycinate hydrochloride salt [Compound 47]” the pIC50 ([3]; Table 2 of Example 94) was 8.60.
Molecule “Cryptophycin 55 nicotinoate hydrochloride salt [Compound 7]” has a pIC50 [3] of 6.94 and a pIC50 ([3]; Table 2 of Example 94) of 8.43.
